ChEMBL document CHEMBL5725202, “Substituted bicyclic compounds” (2016)

Target: Sphingosine 1-phosphate receptor 1 (Homo sapiens, UniProt P21453)
Assay: Binding Assay: Membranes were prepared from CHO cells expressing human S1P1. Cells pellets (1x10^9 cells/pellet) were suspended in buffer containing 20 mM HEPES (4-(2-hydroxyethyl)-1-piperazineethanesulfonic acid), pH 7.5, 50 mM NaCl, 2 mM EDTA (Ethylenediaminetetraacetic acid) and Protease Inhibitor cocktail (Roche), and disrupted on ice using the Polytron homogenizer. The homogenate was centrifuged at 20,000 rpm (48,000 g) and the supernatant was discarded. The membrane pellets were resuspended in buffer containing 50 mM HEPES, pH 7.5, 100 mM NaCl, 1 mM MgCl2, 2 mM EDTA and stored in aliquots at -80° C. after protein concentration determination.Membranes (2 ug/well) and 0.03 nM final concentration of 33P-S1P ligand (1 mCi/ml, Perkin elmer or American Radiolabeled Chemicals) diluted in assay buffer (50 mM HEPES, pH7.4, 5 mM MgCl2, 1 mM CaCl2, 0.5% fatty acid free BSA (bovine serum albumin), 1 mM NaF) were added to the compound plates (384 Falcon v-bottom plate (0.5 ul/well in a 11 point, 3-fold dilution). Binding was performed for 45 minutes at room temperature, terminated by collecting the membranes onto 384-well Millipore FB filter plates, and radioactivity was measured by TOPCOUNT. The competition data of the test compounds over a range of concentrations was plotted as percentage inhibition of radioligand specific binding.

Chain of Sphingosine 1-phosphate receptor 1 (P21453 whole entry): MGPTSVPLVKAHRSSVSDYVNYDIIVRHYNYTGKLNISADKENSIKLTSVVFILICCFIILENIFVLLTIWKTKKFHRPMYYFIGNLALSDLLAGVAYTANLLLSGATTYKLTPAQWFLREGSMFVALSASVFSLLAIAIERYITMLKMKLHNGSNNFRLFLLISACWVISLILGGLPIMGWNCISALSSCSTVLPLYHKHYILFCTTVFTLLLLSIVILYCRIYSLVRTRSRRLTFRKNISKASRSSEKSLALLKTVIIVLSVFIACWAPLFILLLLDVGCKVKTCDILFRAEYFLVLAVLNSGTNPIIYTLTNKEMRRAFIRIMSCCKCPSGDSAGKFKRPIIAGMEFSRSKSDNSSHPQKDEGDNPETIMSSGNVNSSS

IC50: < 10 nM
SMILES: CCCCCC[C@H]1Cc2ccc([C@@H]3CC[C@](N)(COP(=O)(O)O)C3)cc2CO1
